{"source": "ChEMBL document CHEMBL4145579", "about": "“Plasmodial Kinase Inhibitors: License to Cure?” (J Med Chem, 2018)", "key": {"[1]": {"target": "T1, Calcium-dependent protein kinase 1 (Plasmodium falciparum, UniProt P62344)", "T1 sequence (P62344 whole entry)": "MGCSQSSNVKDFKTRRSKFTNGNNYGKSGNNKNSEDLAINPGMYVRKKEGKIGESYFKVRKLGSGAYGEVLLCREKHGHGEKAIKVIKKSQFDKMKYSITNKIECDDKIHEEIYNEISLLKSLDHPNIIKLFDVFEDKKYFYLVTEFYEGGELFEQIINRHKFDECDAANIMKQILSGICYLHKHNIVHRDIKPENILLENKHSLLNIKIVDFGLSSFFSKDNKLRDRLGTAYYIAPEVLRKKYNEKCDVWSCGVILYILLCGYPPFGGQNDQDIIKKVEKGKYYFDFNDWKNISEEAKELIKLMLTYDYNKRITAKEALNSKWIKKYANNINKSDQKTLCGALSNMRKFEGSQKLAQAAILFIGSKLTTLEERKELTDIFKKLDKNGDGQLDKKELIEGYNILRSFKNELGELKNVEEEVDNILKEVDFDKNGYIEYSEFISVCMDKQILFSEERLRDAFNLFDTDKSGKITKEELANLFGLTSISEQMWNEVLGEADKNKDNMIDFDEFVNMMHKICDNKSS", "test": "Inhibition of Plasmodium falciparum recombinant CDPK1 expressed in Escherichia coli expression system after 1 hr in presence of [gamma33P]ATP by scintillation proximity assay"}, "[2]": {"tested_on": "Plasmodium falciparum", "test": "Antiplasmodial activity against mature gametocytes of Plasmodium falciparum 3D7 […]", "format": "functional, organism-based"}, "[3]": {"test": "Inhibition of Plasmodium falciparum PKG"}, "[4]": {"test": "Inhibition of recombinant Plasmodium vivax PI4K"}, "[5]": {"tested_on": "Plasmodium berghei", "test": "Antiplasmodial activity Plasmodium berghei infected in po dosed mouse", "format": "functional"}, "[6]": {"tested_on": "Plasmodium falciparum", "test": "Inhibition of Plasmodium falciparum NF54 exflagellation measured on day 15 post parasite growth", "format": "functional, organism-based", "conditions": "NF54, 360 h"}, "[7]": {"tested_on": "Plasmodium falciparum", "test": "Antiplasmodial activity against Plasmodium falciparum NF54", "format": "functional, organism-based"}, "[8]": {"test": "Inhibition of Plasmodium falciparum 3D7 6xHis-tagged PI3K helica domain expressed in Escherichia coli by Western blot analysis"}, "[9]": {"tested_on": "Plasmodium berghei", "test": "Antiplasmodial activity Plasmodium berghei infected in ip dosed mouse", "format": "functional"}, "[10]": {"test": "Inhibition of Plasmodium falciparum recombinant expressed in Toxoplasma gondii after 60 mins in presence of [33P]ATP by scintillation counting"}, "[11]": {"tested_on": "Plasmodium falciparum", "test": "Antiplasmodial activity against Plasmodium falciparum NF54 gametocyte form infected in human erythrocytes by scintillation counting-based [3H]-hypoxanthine incorporation assay", "format": "functional, organism-based"}, "[12]": {"tested_on": "Plasmodium falciparum", "test": "Antiplasmodial activity against chloroquine-sensitive Plasmodium falciparum Dd2 gametocyte form infected in human erythrocytes by scintillation counting-based [3H]-hypoxanthine incorporation assay", "format": "functional, organism-based"}, "[13]": {"target": "T1, Calcium-dependent protein kinase 1", "test": "Inhibition of Plasmodium falciparum recombinant His-tagged CDPK1 expressed in Escherichia coli BL21(DE3) after 1 hr in presence of [gamma33P]ATP by scintillation proximity assay"}, "[14]": {"target": "Mitogen-activated protein kinase 14 (Homo sapiens) (UniProt Q16539)", "sequence (Q16539 whole entry)": "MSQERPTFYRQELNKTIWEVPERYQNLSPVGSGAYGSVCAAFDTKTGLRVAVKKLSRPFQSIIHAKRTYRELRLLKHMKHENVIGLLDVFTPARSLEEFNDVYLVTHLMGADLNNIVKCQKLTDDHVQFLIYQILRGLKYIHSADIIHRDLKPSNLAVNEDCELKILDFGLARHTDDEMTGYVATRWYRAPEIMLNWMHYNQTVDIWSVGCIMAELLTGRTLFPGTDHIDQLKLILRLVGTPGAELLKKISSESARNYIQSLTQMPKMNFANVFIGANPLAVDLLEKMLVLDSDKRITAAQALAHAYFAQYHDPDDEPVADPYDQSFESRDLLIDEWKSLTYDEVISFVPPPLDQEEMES", "test": "Inhibition of recombinant human N-terminal GST-tagged full length SAPK2alpha expressed in Escherichia coli at 10 uM"}, "[15]": {"target": "Fibroblast growth factor receptor 1 (Homo sapiens) (UniProt P11362)", "sequence (P11362 22-822 limits assumed)": "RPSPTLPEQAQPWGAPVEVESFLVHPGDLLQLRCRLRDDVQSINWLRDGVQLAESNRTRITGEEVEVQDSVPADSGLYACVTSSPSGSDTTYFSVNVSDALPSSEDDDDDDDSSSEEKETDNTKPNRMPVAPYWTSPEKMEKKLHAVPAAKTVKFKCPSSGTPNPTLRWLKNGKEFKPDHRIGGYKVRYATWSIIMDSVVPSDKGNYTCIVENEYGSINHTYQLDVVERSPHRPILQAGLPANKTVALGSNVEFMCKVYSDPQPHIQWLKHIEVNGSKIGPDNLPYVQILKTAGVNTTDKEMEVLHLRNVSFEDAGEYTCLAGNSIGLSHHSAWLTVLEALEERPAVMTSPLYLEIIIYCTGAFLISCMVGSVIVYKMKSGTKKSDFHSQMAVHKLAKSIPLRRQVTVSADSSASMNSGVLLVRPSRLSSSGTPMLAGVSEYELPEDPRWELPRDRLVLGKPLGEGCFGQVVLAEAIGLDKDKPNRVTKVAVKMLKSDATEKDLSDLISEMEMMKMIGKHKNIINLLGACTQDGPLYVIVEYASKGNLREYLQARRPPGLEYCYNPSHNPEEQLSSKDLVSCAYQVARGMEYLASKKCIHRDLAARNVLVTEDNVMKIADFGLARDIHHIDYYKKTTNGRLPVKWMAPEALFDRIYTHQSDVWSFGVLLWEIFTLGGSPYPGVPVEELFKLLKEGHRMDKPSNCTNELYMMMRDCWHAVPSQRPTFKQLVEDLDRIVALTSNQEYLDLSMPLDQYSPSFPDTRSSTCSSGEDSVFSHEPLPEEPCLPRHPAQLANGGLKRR", "test": "Inhibition of recombinant human N-terminal GST-tagged FGFR1 (456 to 765 residues) expressed in Escherichia coli at 10 uM"}, "[16]": {"target": "Cyclin-dependent kinase 5/CDK5 activator 1 (Homo sapiens) (UniProt Q00535+Q15078)", "sequence (Q00535 whole entry)": "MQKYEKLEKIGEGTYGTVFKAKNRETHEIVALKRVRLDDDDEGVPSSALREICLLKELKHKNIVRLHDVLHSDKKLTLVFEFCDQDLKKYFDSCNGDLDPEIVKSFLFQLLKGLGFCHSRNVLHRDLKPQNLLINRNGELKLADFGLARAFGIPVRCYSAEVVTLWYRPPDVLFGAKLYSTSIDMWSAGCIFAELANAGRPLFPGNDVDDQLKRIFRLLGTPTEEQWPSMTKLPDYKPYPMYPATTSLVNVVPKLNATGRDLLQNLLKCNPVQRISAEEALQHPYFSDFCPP", "sequence (Q15078 99-307 partner limits assumed)": "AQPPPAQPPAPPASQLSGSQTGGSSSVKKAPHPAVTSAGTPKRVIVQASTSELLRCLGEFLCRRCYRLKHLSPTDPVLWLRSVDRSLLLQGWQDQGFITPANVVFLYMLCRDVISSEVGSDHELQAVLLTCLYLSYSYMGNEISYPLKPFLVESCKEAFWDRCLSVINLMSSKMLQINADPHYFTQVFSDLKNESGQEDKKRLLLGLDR", "test": "Inhibition of recombinant human N-terminal His6-tagged full length CDK5/recombinant human N-terminal GST-tagged full length p25 at 10 uM", "format": "protein-complex assay"}, "[17]": {"tested_on": "Plasmodium falciparum", "test": "Antiplasmodial activity against mature gametocytes of Plasmodium falciparum NF54 […] by standard membrane feeding assay", "format": "functional, organism-based"}, "[18]": {"tested_on": "Plasmodium falciparum", "test": "Antiplasmodial activity against Plasmodium falciparum infected in CD1 mouse at 100 mg/kg, po bid for 4 days", "format": "functional"}, "[19]": {"target": "T2, Calcium-dependent protein kinase 4 (Plasmodium falciparum (isolate 3D7), UniProt Q8IBS5)", "T2 sequence (Q8IBS5 whole entry)": "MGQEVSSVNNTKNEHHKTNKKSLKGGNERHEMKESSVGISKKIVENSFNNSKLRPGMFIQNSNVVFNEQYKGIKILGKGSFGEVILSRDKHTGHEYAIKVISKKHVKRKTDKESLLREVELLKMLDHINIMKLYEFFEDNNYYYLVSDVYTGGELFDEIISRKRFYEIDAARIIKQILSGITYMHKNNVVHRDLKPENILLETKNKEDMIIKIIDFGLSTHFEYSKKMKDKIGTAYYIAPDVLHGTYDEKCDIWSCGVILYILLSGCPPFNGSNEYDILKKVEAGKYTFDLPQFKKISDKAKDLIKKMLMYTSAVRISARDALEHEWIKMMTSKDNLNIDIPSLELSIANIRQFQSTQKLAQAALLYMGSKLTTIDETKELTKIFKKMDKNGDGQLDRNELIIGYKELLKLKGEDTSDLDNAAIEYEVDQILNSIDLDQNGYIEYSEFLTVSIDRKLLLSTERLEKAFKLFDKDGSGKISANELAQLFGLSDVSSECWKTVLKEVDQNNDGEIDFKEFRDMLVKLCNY", "test": "Inhibition of Plasmodium falciparum His-tagged CDPK4 expressed in Escherichia coli BL21(DE3) using […] as substrate after 10 mins in presence of ATP"}, "[20]": {"tested_on": "Plasmodium falciparum", "test": "Antiplasmodial activity against Plasmodium falciparum FCB infected in human erythrocytes after 30 mins by FACS analysis", "format": "functional, organism-based", "conditions": "0.5 h"}, "[21]": {"tested_on": "Plasmodium falciparum", "test": "Antiplasmodial activity drug-sensitive Plasmodium falciparum 3D7 infected in po dosed humanized SCID mouse assessed as decrease in blood parasitemia administered once daily for 4 days measure on day 7 by flow cytometric method", "format": "functional"}, "[22]": {"tested_on": "Plasmodium falciparum", "test": "Antiplasmodial activity against chloroquine-sensitive Plasmodium falciparum D6 infected in human red blood cells preincubated for 24 hrs followed by [3H]-hypoxanthine addition measured after 18 hrs by scintillation counting", "format": "functional, organism-based"}}, "data": [{"compound": "N[C@H]1CC[C@H](Nc2nc(Nc3ccc(C(=O)N4CCCCC4)cc3)c3ncn(-c4cccc(F)c4)c3n2)CC1", "note": "[PURFALCAMINE]", "values": [{"measurement": "IC50", "setting": "[1]", "value": "13 to 17", "unit": "nM"}]}, {"compound": "CN(C)Cc1ccn2c(-c3ccnc(NCC4CC4)n3)c(-c3cccc(S(C)(=O)=O)c3)nc2c1", "values": [{"measurement": "IC50", "setting": "[2]", "value": 102, "unit": "nM"}, {"measurement": "IC50", "setting": "[3]", "value": 0.13, "unit": "nM"}]}, {"compound": "COc1cc(-c2cc(-c3ccc(S(C)(=O)=O)cc3)cnc2N)ccc1O", "values": [{"measurement": "IC50", "setting": "[4]", "value": 10, "unit": "nM"}, {"measurement": "ED90", "setting": "[5]", "value": 43.7, "unit": "mg/kg"}]}, {"compound": "CCOc1ccc2cc(-c3nn(CC4CCN(C)CC4)c4ncnc(N)c34)ccc2c1", "values": [{"measurement": "EC50", "setting": "[6]", "value": 47, "unit": "nM"}, {"measurement": "EC50", "setting": "[7]", "value": 8000, "unit": "nM"}]}, {"compound": "CCOc1ccc2cc(-c3nn(CC4CCNCC4)c4ncnc(N)c34)ccc2c1", "values": [{"measurement": "EC50", "setting": "[6]", "value": 35, "unit": "nM"}, {"measurement": "EC50", "setting": "[7]", "value": 2000, "unit": "nM"}]}, {"compound": "C[C@H]1[C@@H](O)O[C@@H]2O[C@@]3(C)CC[C@H]4[C@H](C)CC[C@@H]1[C@@]24OO3", "note": "[ARTENIMOL]", "values": [{"measurement": "IC50", "setting": "[7]", "value": 3, "unit": "nM"}, {"measurement": "IC50", "setting": "[8]", "value": 4.1, "unit": "nM"}, {"measurement": "ED50", "setting": "[9]", "value": 1.95, "unit": "mg/kg"}]}, {"compound": "CN1CCC(c2cc(-c3ccncc3)c(-c3ccc(F)cc3)[nH]2)CC1", "values": [{"measurement": "IC50", "setting": "[2]", "value": 490, "unit": "nM"}, {"measurement": "IC50", "setting": "[10]", "value": 3.5, "unit": "nM"}, {"measurement": "IC50", "setting": "[11]", "value": 490, "unit": "nM"}, {"measurement": "IC50", "setting": "[12]", "value": 1300, "unit": "nM"}]}, {"compound": "Cc1ccc(C(=O)c2c(N)c(C(N)=O)c3ccccn23)cc1", "values": [{"measurement": "Ki", "setting": "[13]", "value": 262, "unit": "nM"}, {"measurement": "inhibition", "setting": "[14]", "value": 75, "unit": "%"}, {"measurement": "inhibition", "setting": "[15]", "value": 54, "unit": "%"}]}, {"compound": "CCCNc1ccc2ncc(-c3cccc(O)c3)n2n1", "values": [{"measurement": "Ki", "setting": "[13]", "value": 37, "unit": "nM"}, {"measurement": "inhibition", "setting": "[16]", "value": 89, "unit": "%"}]}, {"compound": "O=c1cc(N2CCOCC2)oc2c(-c3ccccc3)cccc12", "note": "[LY-294002]", "values": [{"measurement": "IC50", "setting": "[7]", "value": 3000, "unit": "nM"}, {"measurement": "IC50", "setting": "[8]", "value": 25000, "unit": "nM"}]}, {"compound": "Cc1cn2c(-c3ccnc(NCC4CC4)n3)c(-c3ccc(F)c(NS(C)(=O)=O)c3)nc2cc1CN(C)C", "values": [{"measurement": "IC50", "setting": "[2]", "value": 2.1, "unit": "nM"}, {"measurement": "IC50", "setting": "[3]", "value": 0.16, "unit": "nM"}, {"measurement": "IC50", "setting": "[17]", "value": 41, "unit": "nM"}, {"measurement": "Activity", "setting": "[18]", "value": 99.9, "unit": "%"}]}, {"compound": "CN1CCN(CCCN2c3ccccc3Sc3ccc(C(F)(F)F)cc32)CC1", "note": "[TRIFLUOPERAZINE]", "values": [{"measurement": "Ki", "setting": "[19]", "value": 150000, "unit": "nM"}, {"measurement": "EC50", "setting": "[20]", "value": 1900, "unit": "nM"}]}, {"compound": "CS(=O)(=O)c1ccc(-c2cnc(N)c(-c3ccc(C(F)(F)F)nc3)c2)cc1", "note": "[MMV-048]", "values": [{"measurement": "IC50", "setting": "[4]", "value": 3.4, "unit": "nM"}, {"measurement": "ED90", "setting": "[5]", "value": 0.8, "unit": "mg/kg"}, {"measurement": "ED90", "setting": "[21]", "value": 0.57, "unit": "mg/kg"}]}, {"compound": "O=C1Nc2ccc(Br)cc2/C1=C\\C(=O)c1ccc(F)cc1", "values": [{"measurement": "IC50", "setting": "[22]", "value": "> 14000", "unit": "nM"}]}]}
